The target of this experiment is Proto-oncogene tyrosine-protein kinase Src (Homo sapiens, UniProt P12931). The experiment can be described thus: Binding affinity for p60 c-Src SH2 domain by scintillation proximity assay (SPA).

The structures appear in SMILES notation.

Proto-oncogene tyrosine-protein kinase Src, sequence (P12931 2-536 limits assumed): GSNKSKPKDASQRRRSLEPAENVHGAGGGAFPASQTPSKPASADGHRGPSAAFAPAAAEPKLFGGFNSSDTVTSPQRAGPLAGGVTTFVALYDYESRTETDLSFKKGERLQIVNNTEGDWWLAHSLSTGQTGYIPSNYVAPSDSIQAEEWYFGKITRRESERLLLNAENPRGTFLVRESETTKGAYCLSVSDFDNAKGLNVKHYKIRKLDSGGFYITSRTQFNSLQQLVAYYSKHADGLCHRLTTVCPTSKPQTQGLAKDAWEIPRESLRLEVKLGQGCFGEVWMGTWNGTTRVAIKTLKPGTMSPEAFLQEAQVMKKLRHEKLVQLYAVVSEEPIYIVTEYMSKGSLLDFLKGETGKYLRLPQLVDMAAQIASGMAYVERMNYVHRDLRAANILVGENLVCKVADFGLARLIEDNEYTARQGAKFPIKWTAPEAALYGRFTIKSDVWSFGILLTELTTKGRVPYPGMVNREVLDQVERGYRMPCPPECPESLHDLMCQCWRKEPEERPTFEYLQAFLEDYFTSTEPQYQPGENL

The compound `CC(=O)N[C@@H](Cc1ccc(OP(=O)(O)O)cc1)C(=O)NC(C)c1nc(SCC2CCCCC2)c(C(N)=O)n1C` (stereo partly drawn) displayed a 50% inhibitory concentration (IC50) of 8.6 µM.

Consider `CCOC(=O)c1c(SCC2CCCCC2)nc(C(C)NC(=O)[C@H](Cc2ccc(OP(=O)(O)O)cc2)NC(C)=O)n1C` (stereo partly drawn), for which the IC50 stood at 6.9 µM.

Compound `CC(=O)N[C@@H](Cc1ccc(C(F)(F)P(=O)(O)O)cc1)C(=O)NC(C)c1nc(SCC2CCCCC2)c(C(N)=O)n1C` (stereo partly drawn) yielded an IC50 of 5.3 µM.

For the origin of these results see ChEMBL document CHEMBL1135301, “Imidazole-based ligands of the Src SH2 protein” (Bioorg Med Chem Lett, 2002).
